# Measured values: patent US20060204443A1, “Methods for tumor treatment using dendrimer conjugates” (The Government of the USA as represented by the Secretary …, priority 2005, published 2006)
# Where “and” joins values, the source holds several entries; their conditions need not be identical. Equal values may be shown once.
# How the values were obtained:
# [1] = Quantification of contrast agent in sentinel lymph nodes (signal intensity compared with phantoms); type: in vivo, athymic nu/nu mice
# Procedure: In order to semi-quantify the concentration of contrast agent within each sentinel lymph node, non-tumor bearing athymic nu/nu mice (n=8) were anesthetized and injected with 0.40 μmolGd of the G6 contrast agent (40 mMGd/6400 ppm) into the mammary gland, and axial images were taken with serum phantoms containing known concentrations (2.5 and 5 mM) of G6 using the 3D-fastSPGR (repetition time/echo time 19.2/7.2 msec; inversion time 47 msec; bandwidth 31.2 kHz, flip angle 30°, 3 excitations; 16 slice encoding steps; scan time 2 minutes 25 seconds) 12, 24, 36, 48, and 60 minutes after injection.
# To validate the concentration of G6 agent, we used another method to calculate the Gd concentration in the enhanced left axillary lymph node. The consecutive MR images of 5 separate mice together with the same phantoms used above were taken with the same 3D-fSPGR protocol using 4 flip angles (10, 20, 30, and 40 degrees) at 24 min post-injection of 40 mM/20 μL G6 agent in the left mammary gland. Signal intensity of the enhanced left axillary lymph node was corrected with that in the right axillary lymph node as a non-enhanced control. Then, signal intensities obtained with different flip angles were plotted in order to calculate decreased T1 values in the left axillary lymph node due to the presence of G6 agent. Gd(III) concentrations were calculated based on the decreased T1 values in the enhanced node and the R1 relaxivity of G6 agent at this condition. Technically, multi-flip angle scans were able to be performed once an hour because of the gradient driver overheat on the MRI system. In order to calculate serial concentration of the G6 agent, this separate set of mice was used only to obtain the T1 values. The serial concentrations of G6 agent were calculated based on serial scan data under flip angle (30°) and T1 values obtained from multi-flip angle scans.
# [2] = test system: Draining Lymph Nodes (LNs) from the Normal Breast Tissue; assay: Dynamic micro-MR mammo-lymphangiography after injection into normal mammary gland (Example 1); type: in vivo, mice
# Procedure: Mice were anesthetized with 1.15 mg sodium pentobarbital (Dainabot, Osaka, Japan), and then injected with 0.15-0.24 μmol Gd/5-8 μL of the PAMAM-G6 contrast agent into normal mammary glands or mammary tissue surrounding a tumor (peritumorally). Dynamic micro-MR images were obtained using a 1.5-Tesla superconductive magnet unit (Signa LX, General Electric Medical System, Milwaukee, Wis.) with a birdcage type coil of 3 cm diameter fixed by a custom made coil holder. Single and double “breast coils” used for imaging breasts in humans are commercially available, for example, from GE Medical Systems (Milwaukee, Wis.) and are routinely available in outpatient MRI centers. The mice were wrapped with gauze to stabilize their body temperature and were placed at the center of the coils.
# In order to evaluate the lymphatic drainage from the normal mammary gland of either Balb/c mice (n=5) or athymic nu/nu mice (n=5), 3D-fast spoiled gradient echo (3D-fastSPGR (efgre3d package; Signa Horizon, GE); repetition time/echo time 19.2/7.2 msec; inversion time 47 msec; 31.2 kHz, flip angle 30°, 4 excitations; 36 slice encoding steps; scan time 4 min 49 seconds) with chemical shift fat-suppression was used 6, 12, 18, 24, 30, 36, 42, and 48 min after injection of the contrast agent. The coronal images were reconstructed with 0.6-mm section thickness every 0.3-mm. The field of view was 8×4 cm and the size of the matrix was 512×256. The slice data were processed into 3D images using the maximum intensity projection (MIP) method with the same window and level (window 3500 and level 2100) (Advantage Windows, General Electric Medical System). After imaging, the mice were sacrificed by carbon dioxide inhalation.
# Athymic nu/nu mice (n=4) were anesthetized and injected with 0.15 μmol Gd of GPDM into the mammary gland, and images were taken 12, 24, and 36 min after injection. Following these three images, these mice were subsequently injected with 0.15 μmol Gd of PAMAM-G6 contrast agent in the mammary gland, and images were taken at 12 and 24 min post-injection of the PAMAM-G6 contrast agent (at 48 and 60 min post-injection of GPDM).
# [3] = Serum phantoms: T1-weighted MRI signal intensity vs G6 agent concentration; type: physicochemical; conditions: FIG. 21B
# Source text: In order to verify the correlation between T1-weighted MRI signal intensity and concentration of G6 agent, serum phantoms were made containing various concentrations of the G6 agent with a bovine serum (GIBCO, Invitrogen Co., Carlsbad, Calif.) and MR images were obtained with the same imaging technique as shown above. Three sets of phantoms, high ([…]-40 mMGd), intermediate (0.1-1 mMGd) and low (0.01-0.1 mMGd) concentrations, were studied. A sample of Gd-DTPA was used as an internal control.
# [4] = in vivo
substance,measurement,setting,value
PAMAM-G6D-(Gd-1B4M)256 dendrimer conjugate,Time of maximum concentration in the axillary lymph node,[1]; five mice,24 minutes post-injection in two of five mice and 36 minutes post-injection in three of five mice
same,Retention in the left axillary lymph node (FIG. 23),"[1]; mouse, in vivo",maintained in high concentration in the lymph node for up to 60 minutes post-injection
same,Accumulation in the lateral thoracic lymph nodes,[1]; number of mice,three of five mice
same,"Visualized LNs/Total Examined LNs, Axillary LN",[2]; 6 min after injection,visualized at the initial (6 min) time point in all 10 mice and 10/10
same,"Visualized LNs/Total Examined LNs, Lateral thoracic LN",[2]; 6 min after injection,0/10
same,"Visualized LNs/Total Examined LNs, Superficial cervical LN",[2]; 6 min after injection,1/10
same,"Visualized LNs/Total Examined LNs, Axillary LN",[2]; 12 min after injection,10/10
same,"Visualized LNs/Total Examined LNs, Lateral thoracic LN",[2]; 12 min after injection,1/10
same,"Visualized LNs/Total Examined LNs, Superficial cervical LN",[2]; 12 min after injection,1/10
same,"Visualized LNs/Total Examined LNs, Axillary LN",[2]; 18 min after injection,10/10
same,"Visualized LNs/Total Examined LNs, Lateral thoracic LN",[2]; 18 min after injection,2/10
same,"Visualized LNs/Total Examined LNs, Superficial cervical LN",[2]; 18 min after injection,1/10
same,"Visualized LNs/Total Examined LNs, Axillary LN",[2]; 24 min after injection,10/10
same,"Visualized LNs/Total Examined LNs, Lateral thoracic LN",[2]; 24 min after injection,4/10
same,"Visualized LNs/Total Examined LNs, Superficial cervical LN",[2]; 24 min after injection,2/10
same,"Visualized LNs/Total Examined LNs, Axillary LN",[2]; 30 min after injection,10/10
same,"Visualized LNs/Total Examined LNs, Lateral thoracic LN",[2]; 30 min after injection,4/10
same,"Visualized LNs/Total Examined LNs, Superficial cervical LN",[2]; 30 min after injection,2/10
same,"Visualized LNs/Total Examined LNs, Axillary LN",[2]; 36 min after injection,10/10
same,"Visualized LNs/Total Examined LNs, Lateral thoracic LN",[2]; 36 min after injection,5/10
same,"Visualized LNs/Total Examined LNs, Superficial cervical LN",[2]; 36 min after injection,3/10
same,"Visualized LNs/Total Examined LNs, Axillary LN",[2]; 42 min after injection,10/10
same,"Visualized LNs/Total Examined LNs, Lateral thoracic LN",[2]; 42 min after injection,6/10
same,"Visualized LNs/Total Examined LNs, Superficial cervical LN",[2]; 42 min after injection,3/10
same,"Visualized LNs/Total Examined LNs, Axillary LN",[2]; 48 min after injection,10/10
same,"Visualized LNs/Total Examined LNs, Lateral thoracic LN",[2]; 48 min after injection,6/10
same,"Visualized LNs/Total Examined LNs, Superficial cervical LN",[2]; 48 min after injection,3/10
same,Visualization of draining lymph nodes and lymphatic vessels (FIG. 5),"[2]; athymic nu/nu mice, 0.15 μmol Gd into the mammary gland, GPDM imaged at 12, 24, 36 min, then PAMAM-G6",clearly visualized
same,T1 relaxivity,[3],much higher T1 relaxivity than Gd-DTPA
same,Survival in the lymph system,[4],intermediate survival period in the lymph system
